The values below come from ChEMBL document CHEMBL1614631, “Comparative evaluation of oral systemic exposure of 56 xenobiotics in rat, dog, monkey and human” (Xenobiotica, 2005).

A short description of series [1]: Dose normalised AUC in rat after po administration. The note with it: in vivo.
The nature of series [2]: Dose normalised AUC in dog after po administration. The note with it: in vivo.
A short description of series [3]: Dose normalised AUC in monkey after po administration. The note with it: macaca, in vivo.
Series [4] is described as follows: Dose normalised AUC in human after po administration. The conditions noted are these: in vivo.

In the case of `COc1ccc(C(C)C)cc1CN[C@H]1C2CCN(CC2)[C@H]1C(c1ccccc1)c1ccccc1` [EZLOPITANT], the DNAUC in series [1] turned out to be 2.36 kg·min/L; in series [2], 10.82 kg·min/L; in series [3] it was 0.6 kg·min/L; in series [4] it was 125 kg·min/L.
Regarding `O=C(O)C(Cl)c1ccc(C2CCCCC2)c(Cl)c1` (stereo not given) [FENCLORAC], the DNAUC in series [1] turned out to be 630.2 kg·min/L; in series [2] it was 2454.09 kg·min/L; in series [3], 491.65 kg·min/L; in series [4], 2651.33 kg·min/L.
The corresponding values for `CN1CCN(c2c(F)cc3c(=O)c(C(=O)O)cn(CCF)c3c2F)CC1` [FLEROXACIN] are 152.4 kg·min/L, 618 kg·min/L, 133.54 kg·min/L and 432.41 kg·min/L.
The like results for `CC1(C)O[C@@H]2C[C@H]3[C@@H]4C[C@H](F)C5=CC(=O)C=C[C@]5(C)[C@H]4[C@@H](O)C[C@]3(C)[C@]2(C(=O)CO)O1` [FLUNISOLIDE] were, in that order, 107.25 kg·min/L, 63.58 kg·min/L, 2.1 kg·min/L and 16.42 kg·min/L.
With `C[C@H](C(=O)O)c1ccc2oc(-c3ccc(F)cc3)nc2c1` [FLUNOXAPROFEN], the DNAUC in series [1] came to 14620.68 kg·min/L; in series [2], 960.78 kg·min/L; in series [3], 1464.8 kg·min/L; in series [4], 2794 kg·min/L.
In the case of `CC(C(=O)O)c1ccc(-c2ccccc2)c(F)c1` (stereo not given) [FLURBIPROFEN], the DNAUC in series [1] came to 1042.5 kg·min/L; in series [2], 4718.5 kg·min/L; in series [3] it was 2364.5 kg·min/L; in series [4] it was 2900.56 kg·min/L.
Regarding `CC(C)n1c(/C=C/C(O)CC(O)CC(=O)O)c(-c2ccc(F)cc2)c2ccccc21` (stereo not given) [FLUVASTATIN], the DNAUC in series [1] came out at 195 kg·min/L; in series [2], 82.11 kg·min/L; in series [3], 5.37 kg·min/L; in series [4] it was 49.3 kg·min/L.
The corresponding values for `NS(=O)(=O)c1cc(C(=O)O)c(NCc2ccco2)cc1Cl` [FUROSEMIDE] are 44.73 kg·min/L, 57.84 kg·min/L, 43.2 kg·min/L and 184.62 kg·min/L.
The like results for `NCC1(CC(=O)O)CCCCC1` [GABAPENTIN] were, in that order, 87.72 kg·min/L, 290.4 kg·min/L, 156.24 kg·min/L and 369.82 kg·min/L.
As for `CC(=O)[C@H]1CC[C@H]2[C@@H]3CC[C@H]4C[C@](C)(O)CC[C@]4(C)[C@H]3CC[C@]12C` [GANAXOLONE], the DNAUC in series [1] was 0.76 kg·min/L; in series [2], 77.25 kg·min/L; in series [3], 1.39 kg·min/L; in series [4], 5.65 kg·min/L.
As for `CC(=O)NCCOC(=O)C(Oc1cccc(C(F)(F)F)c1)c1ccc(Cl)cc1` (stereo not given) [HALOFENATE], the DNAUC in series [1] came to 9183.98 kg·min/L; in series [2], 390.13 kg·min/L; in series [3] it was 3918.28 kg·min/L; in series [4], 15037.59 kg·min/L.
Turning to `CCCCCNC(=O)c1coc([C@H]2[C@@H](Cc3ccccc3CCC(=O)O)[C@@H]3CC[C@H]2O3)n1` [IFETROBAN], the DNAUC in series [1] was found to be 2.86 kg·min/L; in series [2] it was 9.48 kg·min/L; in series [3], 13.02 kg·min/L; in series [4], 77.32 kg·min/L.
The like results for `CC(C)(C)NC(=O)[C@@H]1CN(Cc2cccnc2)CCN1C[C@@H](O)C[C@@H](Cc1ccccc1)C(=O)N[C@H]1c2ccccc2C[C@H]1O.O` [INDINAVIR] were, in that order, 3.13 kg·min/L, 46.1 kg·min/L, 5.34 kg·min/L and 52.98 kg·min/L.
Regarding `COc1ccc2c(c1)c(CC(=O)O)c(C)n2C(=O)c1ccc(Cl)cc1` [INDOMETHACIN], the DNAUC was 2056 kg·min/L in series [1], 793.3 kg·min/L in series [2], 133.1 kg·min/L in series [3] and 488.62 kg·min/L in series [4].
The corresponding values for `O=C(c1ccccc1)c1ccc2n1CCC2C(=O)O` (stereo not given) [KETOROLAC] are 285 kg·min/L, 1352.94 kg·min/L, 1912.26 kg·min/L and 1256.47 kg·min/L.
The corresponding values for `CCN(CC)CC(=O)Nc1c(C)cccc1C` [LIDOCAINE] are 1.64 kg·min/L, 8.38 kg·min/L, 3.79 kg·min/L and 38.04 kg·min/L.
For `Cc1cnc(NC(=O)C2=C(O)c3ccccc3S(=O)(=O)N2C)s1` [MELOXICAM], the DNAUC in series [1] came to 4998 kg·min/L; in series [2], 6870 kg·min/L; in series [3] it was 2856 kg·min/L; in series [4], 6655.81 kg·min/L.
In the case of `COCCc1ccc(OCC(O)CNC(C)C)cc1` (stereo not given) [METOPROLOL], the DNAUC stood at 58 kg·min/L in series [1], 15.8 kg·min/L in series [2], 8.33 kg·min/L in series [3] and 25.33 kg·min/L in series [4].
The like results for `Cc1ncc2n1-c1ccc(Cl)cc1C(c1ccccc1F)=NC2` [MIDAZOLAM] were, in that order, 1.64 kg·min/L, 23.79 kg·min/L, 4.17 kg·min/L and 66.67 kg·min/L.
On to `CCCCN1C[C@H](O)[C@@H](O)[C@H](O)[C@H]1CO` [MIGLUSTAT], for which the DNAUC in series [1] came out at 16.6 kg·min/L; in series [2] it was 204 kg·min/L; in series [3], 166.88 kg·min/L; in series [4] it was 358.71 kg·min/L.
The corresponding values for `COc1c(N2C[C@@H]3CCCN[C@@H]3C2)c(F)cc2c(=O)c(C(=O)O)cn(C3CC3)c12` [MOXIFLOXACIN] are 18.35 kg·min/L, 245.95 kg·min/L, 45.09 kg·min/L and 372.73 kg·min/L.
`COC(=O)C1=C(C)NC(C)=C(C(=O)OCCN(C)Cc2ccccc2)C1c1cccc([N+](=O)[O-])c1` (stereo not given) [NICARDIPINE]: the DNAUC came to 1.1 kg·min/L in series [1], 2 kg·min/L in series [2], 3.84 kg·min/L in series [3] and 10 kg·min/L in series [4].
Turning to `COC(=O)C1=C(C)NC(C)=C(C(=O)OCC(C)C)C1c1ccccc1[N+](=O)[O-]` (stereo not given) [NISOLDIPINE], the DNAUC in series [1] is 0.49 kg·min/L; in series [2], 2.64 kg·min/L; in series [3], 0.84 kg·min/L; in series [4], 1.2 kg·min/L.
For `CS(=O)(=O)Nc1ccc(F)c([C@@H](O)CN)c1` [NS-49], the DNAUC in series [1] stood at 33.3 kg·min/L; in series [2] it was 382.2 kg·min/L; in series [3], 165.6 kg·min/L; in series [4], 306 kg·min/L.
The corresponding values for `CC1COc2c(N3CCN(C)CC3)c(F)cc3c(=O)c(C(=O)O)cn1c23` (stereo not given) [OFLOXACIN] are 32.85 kg·min/L, 407.7 kg·min/L, 218.1 kg·min/L and 297.93 kg·min/L.
